Results: patent publication US20260306500A1, “METHOD OF INHIBITING ADENOSINE TRIPHOSPHATE SECRETION, METHOD OF INHIBITING HEPATIC STELLATE CELL ACTIVATION, METHOD OF DEACTIVATING HEPATIC STELLATE CELL, METHOD OF TREATING HEPATIC FIBROSIS, METHOD OF TREATING NON-ALCOHOLIC STEATOHEPATITIS, AND METHOD OF TREATING PSORIASIS” (Kurume University, priority 2023, published 2026)

How the values were obtained:
LX-2 cells = test: ATP secretion from LX-2 cells; type: cell-based, human; conditions: 10 μM clodronate
Protocol: Cells of the immortalized human hepatic stellate cell line LX-2 (manufactured by Merck) was cultured in Dulbecco's modified Eagle's medium (DMEM, 4500 mg/l Glucose, D5796, manufactured by Sigma-Aldrich) supplemented with inactivated 2% fetal bovine serum (FBS), 10 IU/ml penicillin, and 10 IU/ml streptomycin in a T25 or T75 flask at 37° C. in 5% CO2.
LX-2 cells (2×10^6 cells per well) were seeded in a collagen-coated 6-well culture dish containing Dulbecco's modified Eagle's medium (manufactured by Sigma-Aldrich) supplemented with 10 IU/ml penicillin, […] 2% fetal bovine serum, and cultured in 5% CO2 at 37° C. After 3 days, the LX-2 cells were washed twice and preincubated in Krebs-Ringer buffer (10 mM HEPES-Tris, pH 7.4, 128 mM NaCl, 1.9 mM KCl, 1.2 mM KH2PO4, 1.3 mM MgSO4, 26 mM NaHCO3, 2.4 mM CaCl2, 10 mM glucose, 0.2% (w/v) bovine serum albumin) with or without 10 μM clodronate. The LX-2 cells were then stimulated with Krebs-Ringer buffer supplemented with ionomycin (manufactured by Cayman) regardless of whether clodronate was present or not. For the stimulation, 1 mM EGTA (manufactured by Dojindo) or 10 μM serotonin (5-HT, manufactured by Sigma-Aldrich) was used. The ATP concentration in the culture supernatant was measured in the same manner as in Example 6.
For an siRNA experiment, a TriFECTa (trademark) RNAi Kit (manufactured by Integrated DNA Technologies) was used. A scramble RNA (scRNA) as a control siRNA, or a VNUT-specific siRNA, was incubated with Lipofectamine 3000 reagent (manufactured by Invitrogen) in OptiMEM reduced-serum medium (#31985070, manufactured by Gibco) at room temperature for 15 minutes, and then added directly to the cultured cells. The LX-2 cells as the transfection mixture were plated, and then cultured for 48 hours. The base sequences of VNUT siRNA forward and VNUT siRNA reverse, used for the above kit, are shown in SEQ ID NOs: 1 and 2, respectively. A positive control for an endogenous gene (#51-01-08-02) and a negative control (#51-01-14-03) were used.

V-ATPase = target: T1, V-ATPase (Bos taurus, UniProt P31404+P31408); test: ATP-dependent proton transport by V-ATPase (acridine orange fluorescence quenching); type: biochemical, cattle; conditions: role: inhibitor
T1 construct: Chromaffin granule membranes were prepared from adrenal glands collected from slaughtered cattle; from tissue; host or cells: cattle adrenal glands, chromaffin granule membranes (sucrose density gradient)
T1 sequence (P31404 whole entry, looked up): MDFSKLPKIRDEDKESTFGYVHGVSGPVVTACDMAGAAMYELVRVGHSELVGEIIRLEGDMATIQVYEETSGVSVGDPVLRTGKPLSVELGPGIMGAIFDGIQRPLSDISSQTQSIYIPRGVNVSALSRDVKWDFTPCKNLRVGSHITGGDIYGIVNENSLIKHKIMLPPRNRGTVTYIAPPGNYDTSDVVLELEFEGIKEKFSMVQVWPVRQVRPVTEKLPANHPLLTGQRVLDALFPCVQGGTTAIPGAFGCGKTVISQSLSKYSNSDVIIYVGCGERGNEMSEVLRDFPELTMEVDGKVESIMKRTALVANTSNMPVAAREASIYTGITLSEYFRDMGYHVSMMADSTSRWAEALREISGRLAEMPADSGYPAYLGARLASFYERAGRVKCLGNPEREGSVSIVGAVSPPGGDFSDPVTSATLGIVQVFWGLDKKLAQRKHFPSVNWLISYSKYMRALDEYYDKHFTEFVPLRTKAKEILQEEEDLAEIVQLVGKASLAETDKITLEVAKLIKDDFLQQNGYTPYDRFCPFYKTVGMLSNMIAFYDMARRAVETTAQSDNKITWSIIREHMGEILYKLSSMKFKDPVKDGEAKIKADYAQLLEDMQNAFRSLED
T1 sequence (P31408 whole entry, looked up): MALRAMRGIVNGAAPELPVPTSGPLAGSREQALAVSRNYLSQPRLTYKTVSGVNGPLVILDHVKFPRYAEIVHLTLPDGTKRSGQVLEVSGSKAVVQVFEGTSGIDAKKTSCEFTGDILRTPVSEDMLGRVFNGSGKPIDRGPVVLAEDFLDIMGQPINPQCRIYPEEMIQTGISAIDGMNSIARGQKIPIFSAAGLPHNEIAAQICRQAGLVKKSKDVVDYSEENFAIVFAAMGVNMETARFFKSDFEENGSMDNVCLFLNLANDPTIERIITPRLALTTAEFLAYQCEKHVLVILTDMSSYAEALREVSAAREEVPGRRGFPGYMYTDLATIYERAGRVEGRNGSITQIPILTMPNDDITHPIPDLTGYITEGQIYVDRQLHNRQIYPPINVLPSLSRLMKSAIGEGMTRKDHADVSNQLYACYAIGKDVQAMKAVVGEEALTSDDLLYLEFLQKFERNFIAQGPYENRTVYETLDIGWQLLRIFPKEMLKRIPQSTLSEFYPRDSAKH
Protocol: (§1) Chromaffin granule membranes were prepared from adrenal glands collected from slaughtered cattle according to Reference A (Nathan Nelson et al., 1988, Chromaffin Granule Proton Pump, Methods in Enzymology, 157, 619-633). Chromaffin granule membranes prepared by sucrose density gradient centrifugation were suspended in 2 ml of SME buffer (20 mM MOPS-tris (pH 7.0), 0.3 M sucrose, 5 mM EDTA, 10 μg/ml leupeptin, and 10 μg/ml pepstatin)+25% glycerol, and the resulting suspension was aliquoted and stored at −80° C. Under these conditions, the ATP transport activity, the V-ATPase activity, and the catecholamine transport activity remain fully active for at least one year.
ATP-dependent proton transport by V-ATPase was measured according to Reference B. Proton transport activity was measured using a spectrofluorometer at excitation wavelength of 492 nm and a fluorescence wavelength 540 nm, wherein fluorescence quenching of acridine orange was used as an index (N=2). The transmembrane potential generated was measured using a spectrofluorometer at an excitation wavelength of 580 nm and a fluorescence wavelength of 630 nm, wherein fluorescence quenching of oxonol-V was used as an index (N=2). The acridine measurement liquid (2 ml) contained 20 mM MOPS-tris (pH 7.0), 0.2 M sucrose, 0.1 M potassium chloride, 5 mM magnesium acetate, 0.2 μg valinomycin, 2 μM acridine orange, and about 20 μg of chromaffin granules. The oxonol-V measurement liquid (2 ml) contained 20 mM MOPS-tris (pH 7.0), 0.3 M sucrose, 5 mM magnesium acetate, 5 μM oxonol-V, and about 20 μg of chromaffin granules.
(§2) Chromaffin granule membrane vesicles were prepared in the same manner as in Example 5, and uptake of radiolabeled ATP into the vesicles was measured. Transport activity of catecholamine (dopamine) and ATP-dependent proton transport by V-ATPase were also measured in the same manner as in Example 5.

[1] = system: chromaffin granule membrane; test: ATP transport (uptake of radiolabeled ATP) in chromaffin granule membrane vesicles; type: biochemical, cattle; conditions: role: inhibitor; 1 mM 3H-ATP, 30° C., 1 hour, N=3 (FIG. 5); read-out: IC50 (concentration at 50% inhibition) of ATP transport
Protocol: as §1
An ATP transport inhibition experiment for the chromaffin granule membrane was carried out according to Reference B (Yoshinori Moriyama et al., 2022, Is the vesicular nucleotide transporter a molecular target of eicosapentaenoic acid?, Frontiers in Pharmacology, 103389). About 20 μg of chromaffin granule membranes were added to 0.5 ml of measurement buffer (20 mM MOPS-tris (pH 7.0), 0.3 M sucrose, 5 mM potassium chloride, 5 mM magnesium acetate, 5 mM creatine phosphate, 10 units of creatine kinase, and 1 mM 3[H]-ATP [15 KBq/assay]), followed by incubation at 30° C. for 1 hour. Through a Millipore MCE membrane filter with a pore size […], 0.2 ml of the reaction liquid was filtered by suction. Thereafter, the filter was washed with 10 ml of 20 mM MOPS-tris (pH 7.0), 0.3 M sucrose, 5 mM potassium chloride, and 5 mM magnesium acetate, and dissolved in 10 ml of Clear-sol II (manufactured by Nacalai Tesque, Inc.). The radioactivity was then measured using a liquid scintillation counter (N=3).
The reaction was initiated by adding 50 mM ^3[H]-ATP to a final concentration of 1 mM. The 50 mM ^3[H]-ATP was prepared by mixing an ATP-tris solution (manufactured by Sigma-Aldrich) with [2,8-^3H]adenosine triphosphate tetrasodium salt (26.0 Ci/mmol) (manufactured by New England Nuclear). PEP was used as a test reagent, and pyruvic acid was used as a negative control. Five minutes before the addition of ATP, PEP or pyruvic acid, as a solution in 20 mM MOPS-tris (pH 7.0), 0.3 M sucrose, 5 mM potassium chloride, and 5 mM magnesium acetate, was added to the measurement liquid to a final PEP concentration of 0.02, 0.05, 0.1, 0.2, 0.4, or 1 mM, or to a final pyruvic acid concentration of 0.5 or 1 mM.
as §2

[2] = cited from earlier work

For `O=P(O)(O)C(Cl)(Cl)P(=O)(O)O` [clodronate], the “5-HT-promoted ATP secretion” value (LX-2 cells; 10 μM 5-HT, N=6 (FIG. 25)) was “strongly inhibited” and the ATP exocytosis (LX-2 cells; ionomycin, N=6 (FIG. 24)) was “inhibited”.

In the case of `C=C(OP(=O)(O)O)C(=O)O` [PEP, phosphoenolpyruvic acid], the “change in acridine orange quenching level” value (V-ATPase; 5 mM PEP, in presence of ATP, N=2) is reported as “did not change the level of quenching”, the “inhibition of V-ATPase” value (V-ATPase; up to 5 mM PEP (data not shown)) is reported as “did not inhibit” and the IC50 [1] is reported as 25 µM.

In the case of `C[C@@H]1N=C(N)NC(N(C)C)=N1` [imeglimin], the concentration ([2]; 1 g of imeglimin hydrochloride daily for one week, 10080 min, read-out: blood imeglimin concentration) is listed as 9 µM and the “transfer into the body” value ([2]; imeglimin) is listed as “extremely low transfer into the body”.
